What was measured:
MDA-MB-231 = assay: Antiproliferative activity against human MDA-MB-231 cells after 48 hrs by MTT assay; type: functional, cell-based; details: MDA-MB-231, 48 h
SK-N-SH = assay: Antiproliferative activity against human SK-N-SH cells after 48 hrs by MTT assay; type: functional, cell-based
A549 = assay: Antiproliferative activity against human A549 cells after 48 hrs by MTT assay; type: functional, cell-based; details: A549, 48 h
MRC5 = assay: Antiproliferative activity against human MRC5 cells after 48 hrs by MTT assay; type: cell-based; details: MRC5, 48 h

Row | IC50 (MDA-MB-231) [µM] | IC50 (SK-N-SH) [µM] | IC50 (A549) [µM] | Compound | IC50 (MRC5) [µM]
1 | > 100 | 10.5 | > 100 | Cc1oc2c3c(ccc2c(=O)c1-c1ccccc1)OC[C@H]1[C@@H]3c2c(n(C)c(=O)n(C)c2=O)OC1(C)C | > 100
2 | > 100 | > 100 | > 100 | Cc1oc2c3c(ccc2c(=O)c1-c1ccccc1)OC[C@H]1[C@@H]3C2=C(CCCC2=O)OC1(C)C | > 100
3 | > 100 | > 100 | > 100 | Cc1oc2c3c(ccc2c(=O)c1C)OC[C@H]1[C@@H]3C2=C(CC(C)(C)CC2=O)OC1(C)C | > 100
4 | > 100 | > 100 | > 100 | Cc1coc2c3c(ccc2c1=O)OC[C@H]1[C@@H]3C2=C(CC(C)(C)CC2=O)OC1(C)C | > 100
5 | > 100 | > 100 | > 100 | Cc1oc2c3c(ccc2c(=O)c1-c1ccccc1)OC[C@H]1[C@@H]3C2=C(CC(C)(C)CC2=O)OC1(C)C | > 100

Second part, the compound before the results:

Row | Compound | IC50 (MDA-MB-231) [µM] | IC50 (SK-N-SH) [µM] | IC50 (A549) [µM] | IC50 (MRC5) [µM]
6 | Cc1oc2c3c(ccc2c(=O)c1C)OC[C@H]1[C@@H]3c2c(c3ccccc3oc2=O)OC1(C)C | > 100 | 1.05 | 0.1 | 0.6
7 | Cc1oc2c3c(ccc2c(=O)c1C)OC[C@H]1[C@@H]3c2c(n(C)c(=O)n(C)c2=O)OC1(C)C | > 100 | 1.06 | 0.1 | > 100
8 | Cc1oc2c3c(ccc2c(=O)c1C)OC[C@H]1[C@@H]3C2=C(CCCC2=O)OC1(C)C | > 100 | > 100 | > 100 | > 100
9 | Cc1coc2c3c(ccc2c1=O)OC[C@H]1[C@@H]3C2=C(CCCC2=O)OC1(C)C | > 100 | > 100 | > 100 | > 100
10 | Cc1oc2c3c(ccc2c(=O)c1C)OC[C@H]1[C@@H]3CC(=O)OC1(C)C | > 100 | > 100 | 0.09 | 0.6
11 | Cc1coc2c3c(ccc2c1=O)OC[C@H]1[C@@H]3CC(=O)OC1(C)C | > 100 | > 100 | 11.2 | > 100
12 | CC(=O)C1=C(C)OC(C)(C)[C@H]2COc3ccc4c(=O)c(C)c(C)oc4c3[C@@H]12 | > 100 | 10.7 | > 100 | > 100
13 | CCOC(=O)C1=C(C)OC(C)(C)[C@H]2COc3ccc4c(=O)c(C)c(C)oc4c3[C@@H]12 | > 100 | 10.8 | 10.9 | 0.9
14 | Cc1nn(-c2ccccc2)c2c1[C@@H]1c3c(ccc4c(=O)c(C)c(C)oc34)OC[C@@H]1C(C)(C)O2 | > 100 | 10.6 | > 100 | > 100
15 | Cc1nn(-c2ccccc2)c2c1[C@@H]1c3c(ccc4c(=O)c(-c5ccccc5)c(C)oc34)OC[C@@H]1C(C)(C)O2 | > 100 | > 100 | > 100 | > 100
